One test addresses T1, KMO mouse enzyme (Mus musculus, UniProt Q91WN4).
T1 construct: KMO enzyme prepared at Evotec from mouse liver (4-6 weeks old) via mitochondria isolation; from tissue; host or cells: mouse liver (4-6 weeks old), mitochondria isolation, prepared at Evotec
Briefly: KMO mouse enzyme assay: L-Kynurenine hydroxylation to 3-Hydroxy-Kynurenine monitored by LC/MS (MRM). Format: biochemical. The settings on record: compound at 10 μM; KMO enzyme from mouse liver mitochondria. Summed up:
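Enzyme is a mitochondrial preparation from 4-6-week-old mouse liver, with L-kynurenine as substrate in potassium phosphate buffer, pH 7.4. 3-Hydroxy-kynurenine formed is quantified by LC/MS using multiple reaction monitoring. Compound stocks were 10 mM in DMSO.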
T1 sequence (Q91WN4 whole entry): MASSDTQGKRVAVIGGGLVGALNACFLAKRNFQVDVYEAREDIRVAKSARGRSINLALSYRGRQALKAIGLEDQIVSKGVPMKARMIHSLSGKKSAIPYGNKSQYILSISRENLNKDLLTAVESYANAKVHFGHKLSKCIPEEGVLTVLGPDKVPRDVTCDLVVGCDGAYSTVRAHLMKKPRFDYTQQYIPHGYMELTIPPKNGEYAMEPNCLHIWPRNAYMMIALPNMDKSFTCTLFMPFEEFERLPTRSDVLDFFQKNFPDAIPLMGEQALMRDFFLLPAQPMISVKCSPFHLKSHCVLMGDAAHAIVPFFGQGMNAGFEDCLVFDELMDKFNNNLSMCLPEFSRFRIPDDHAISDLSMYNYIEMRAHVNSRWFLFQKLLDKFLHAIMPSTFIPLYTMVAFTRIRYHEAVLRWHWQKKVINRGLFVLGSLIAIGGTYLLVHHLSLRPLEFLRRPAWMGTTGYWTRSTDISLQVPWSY
As to `Cc1ccc(NC(=O)c2cc(-c3ccc(Cl)c(Cl)c3)ncn2)cn1.Cl` [6-(3,4-Dichloro-phenyl)-pyrimidine-4-carboxylic acid (6-methyl-pyridin-3-yl)-amide hydrochloride salt], the “INH.Mouse @ 10 μM” value is 94.0.

The test is the same for the next values; noted with them: compound at 10 μM; KMO enzyme from mouse liver mitochondria; read-out: INH.Mouse @ 10 μM.
For the compound `COc1cncc(NC(=O)c2cc(-c3cccc(Cl)c3)ccn2)c1` [4-(3-Chloro-phenyl)-pyridine-2-carboxylic acid (5-methoxy-pyridin-3-yl)-amide], the inhibition at 10 µM was 53.8%.

In the case of `O=C(O)c1cc(-c2cccc(Cl)c2)ccn1` [4-(3-Chloro-phenyl)-pyridine-2-carboxylic acid], the inhibition at 10 µM is 100%.

`Cc1nnc(NC(=O)c2cc(-c3cccc(Cl)c3)ncn2)o1` [6-(3-Chloro-phenyl)-pyrimidine-4-carboxylic acid (5-methyl-[1,3,4]oxadiazol-2-yl)-amide]: the inhibition at 10 µM was determined as 100%.

With `CCCNC(=O)c1cc(-c2cccc(Cl)c2)ncn1` [6-(3-Chloro-phenyl)-pyrimidine-4-carboxylic acid propylamide], the inhibition at 10 µM was 72.4%.

`O=C(c1cc(-c2cccc(Cl)c2)ncn1)N1CCOCC1` [[6-(3-Chloro-phenyl)-pyrimidin-4-yl]-morpholin-4-yl-methanone]: the inhibition at 10 µM worked out at 100%.

For `O=C(Nc1ccccc1)c1cc(-c2ccc(Cl)c(Cl)c2)ccn1` [4-(3,4-Dichloro-phenyl)-pyridine-2-carboxylic acid phenylamide], the inhibition at 10 µM came to 43.5%.

As to `O=C(Nc1ccccc1)c1cc(-c2cccc(Cl)c2)ncn1` [6-(3-Chloro-phenyl)-pyrimidine-4-carboxylic acid phenylamide], the inhibition at 10 µM was 100%.

On to `Cn1cc(NC(=O)c2cc(-c3cccc(Cl)c3)ncn2)cn1` [6-(3-Chloro-phenyl)-pyrimidine-4-carboxylic acid (1-methyl-1H-pyrazol-4-yl)-amide], for which the inhibition at 10 µM turned out to be 100%.

As to `COC(=O)c1cc(-c2ccc(F)c(C(F)(F)F)c2)ncn1` [6-(4-Fluoro-3-trifluoromethyl-phenyl)-pyrimidine-4-carboxylic acid methyl ester], the inhibition at 10 µM turned out to be 92.7%.

Turning to `COC(=O)c1cc(-c2ccc(OC)c(Cl)c2)ncn1` [6-(3-Chloro-4-methoxy-phenyl)-pyrimidine-4-carboxylic acid methyl ester], the inhibition at 10 µM worked out at 100%.

On to `Cc1cccc(NC(=O)c2cc(-c3cccc(Cl)c3)ncn2)c1` [6-(3-Chloro-phenyl)-pyrimidine-4-carboxylic acid m-tolylamide], for which the inhibition at 10 µM is 96.6%.

Take `CN1CCN(C(=O)c2cc(-c3cccc(Cl)c3)ncn2)CC1` [[6-(3-Chloro-phenyl)-pyrimidin-4-yl]-(4-methyl-piperazin-1-yl)-methanone]: the inhibition at 10 µM came to 64.3%.

For the compound `CC1CCN(C(=O)c2cc(-c3cccc(Cl)c3)ncn2)CC1` [[6-(3-Chloro-phenyl)-pyrimidin-4-yl]-(4-methyl-piperidin-1-yl)-methanone], the inhibition at 10 µM was 88.2%.

Consider `O=C(Nc1ccccc1)c1cc(-c2cc(Cl)cc(Cl)c2)ccn1` [4-(3,5-Dichloro-phenyl)-pyridine-2-carboxylic acid phenylamide], for which the inhibition at 10 µM amounted to 59.7%.

As for `O=C(Nc1cccnn1)c1cc(-c2cccc(Cl)c2)ncn1` [6-(3-Chloro-phenyl)-pyrimidine-4-carboxylic acid pyridazin-3-ylamide], the inhibition at 10 µM turned out to be 100%.

Consider `O=C(Nc1cccnc1)c1cc(-c2cc(Cl)cc(Cl)c2)ncn1` [6-(3,5-Dichloro-phenyl)-pyrimidine-4-carboxylic acid pyridin-3-ylamide], for which the inhibition at 10 µM was 72.2%.

Turning to `Cc1nsc(NC(=O)c2cc(-c3cccc(Cl)c3)ncn2)n1` [6-(3-Chloro-phenyl)-pyrimidine-4-carboxylic acid (3-methyl-[1,2,4]thiadiazol-5-yl)-amide], the inhibition at 10 µM is 85.4%.

Turning to `O=C(Nc1cccnc1)c1cc(-c2ccc(C(F)(F)F)c(Cl)c2)ncn1` [6-(3-Chloro-4-trifluoromethyl-phenyl)-pyrimidine-4-carboxylic acid pyridin-3-ylamide], the inhibition at 10 µM came out at 48.3%.

The values are drawn from patent US9145373B2, “Certain kynurenine-3-monooxygenase inhibitors, pharmaceutical compositions, and methods of use thereof” (CHDI FOUNDATION, INC., priority 2008, dated 2015).
